Data published in ChEMBL document CHEMBL1201862, “PubChem BioAssay data set” (2004).
Active and inactive are the calls of the source.

What was measured:
Beta-galactosidase = Beta-galactosidase (Escherichia coli, UniProt Q8VNN2); test: PubChem AID 485352; assay type: functional
[1] = biological target: T1, Type-1 angiotensin II receptor (Homo sapiens, UniProt P30556); test: antagonism of angiotensin II type 1 receptor – cell-based, uHTS hits, selectivity assay for APJ receptor antagonist project, dose response (AID 463214); assay type: functional;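 further: antagonist potency against angiotensin II stimulated AT1 response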
T1 sequence (P30556 whole entry): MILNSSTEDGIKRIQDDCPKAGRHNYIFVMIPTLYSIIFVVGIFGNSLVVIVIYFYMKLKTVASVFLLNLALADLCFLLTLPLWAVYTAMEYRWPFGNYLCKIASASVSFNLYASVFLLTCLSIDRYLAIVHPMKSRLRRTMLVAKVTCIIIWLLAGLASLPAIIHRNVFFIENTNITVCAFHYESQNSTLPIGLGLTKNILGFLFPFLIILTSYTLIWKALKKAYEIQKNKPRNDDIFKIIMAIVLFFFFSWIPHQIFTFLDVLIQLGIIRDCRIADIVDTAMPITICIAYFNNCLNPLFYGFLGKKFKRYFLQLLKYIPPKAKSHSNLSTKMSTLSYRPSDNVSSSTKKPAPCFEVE

Cytochrome P450 1A2 = biological target: T2, Cytochrome P450 1A2 (Homo sapiens, UniProt P05177);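 further: PubChem cytochrome P450 panel assay, CYP1A2 panel member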
T2 sequence (P05177 whole entry): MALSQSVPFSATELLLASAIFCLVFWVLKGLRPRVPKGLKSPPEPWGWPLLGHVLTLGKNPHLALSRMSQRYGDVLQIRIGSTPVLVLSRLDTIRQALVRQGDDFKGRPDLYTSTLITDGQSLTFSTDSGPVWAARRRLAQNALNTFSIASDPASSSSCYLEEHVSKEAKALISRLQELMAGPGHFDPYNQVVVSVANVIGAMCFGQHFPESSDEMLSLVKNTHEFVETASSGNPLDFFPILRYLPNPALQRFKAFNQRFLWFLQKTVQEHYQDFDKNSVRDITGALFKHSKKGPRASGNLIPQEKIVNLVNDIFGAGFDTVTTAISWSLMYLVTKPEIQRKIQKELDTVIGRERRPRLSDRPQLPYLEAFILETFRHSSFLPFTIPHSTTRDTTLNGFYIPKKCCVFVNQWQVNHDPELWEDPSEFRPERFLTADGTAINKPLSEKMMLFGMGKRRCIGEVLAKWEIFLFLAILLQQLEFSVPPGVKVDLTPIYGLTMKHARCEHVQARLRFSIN

Cytochrome P450 3A4 = Cytochrome P450 3A4 (Homo sapiens, UniProt P08684);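 further: CYP3A4 tested as one member of a cytochrome P450 panel screen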
Vero [2] = test: cells; assay type: functional, cell-based; details: Chlorocebus sabaeus
Vero [3] = test: cells; assay type: functional; details: Chlorocebus sabaeus
Trypsin = Trypsin (Sus scrofa, UniProt P00761); test: trypsin protease activity blockade – biochemical, quenched peptide fluorescence, cherry-pick, selectivity assay for Rce1 protease inhibitor project, dose response (AID 488789)
CAAX prenyl protease 2 = biological target: T3, CAAX prenyl protease 2 (Homo sapiens, UniProt Q9Y256); test: inhibition of Ras-converting CAAX protease Rce1 – biochemical, yeast membranes, quenched-peptide fluorescence, cherry-pick, dose response (AID 588849)
T3 sequence (Q9Y256 whole entry): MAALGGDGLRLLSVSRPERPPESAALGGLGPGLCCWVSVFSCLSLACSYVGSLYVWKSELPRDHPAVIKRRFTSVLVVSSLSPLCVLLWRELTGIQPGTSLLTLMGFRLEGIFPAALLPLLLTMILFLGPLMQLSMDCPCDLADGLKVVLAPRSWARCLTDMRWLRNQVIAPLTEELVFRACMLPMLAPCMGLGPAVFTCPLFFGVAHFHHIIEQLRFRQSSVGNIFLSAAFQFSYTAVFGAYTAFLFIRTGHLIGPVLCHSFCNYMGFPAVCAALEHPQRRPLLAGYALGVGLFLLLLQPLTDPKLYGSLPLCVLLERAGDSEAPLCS

[4] = biological target: T4, Heat shock factor protein 1 (Mus musculus, UniProt P38532); test: enhancement of HSF1-driven luciferase signal – cell-based, NIH3T3, luminescence, dose retest, confirmation (AID 435004); assay type: functional;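 further: stress induced by proteasome inhibitor MG132 added 30 min after compound; luciferase reporter driven by HSF1 response element in NIH3T3 cells; actives raise luminescence as potentiators of the MG132 stress response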
T4 sequence (P38532 whole entry): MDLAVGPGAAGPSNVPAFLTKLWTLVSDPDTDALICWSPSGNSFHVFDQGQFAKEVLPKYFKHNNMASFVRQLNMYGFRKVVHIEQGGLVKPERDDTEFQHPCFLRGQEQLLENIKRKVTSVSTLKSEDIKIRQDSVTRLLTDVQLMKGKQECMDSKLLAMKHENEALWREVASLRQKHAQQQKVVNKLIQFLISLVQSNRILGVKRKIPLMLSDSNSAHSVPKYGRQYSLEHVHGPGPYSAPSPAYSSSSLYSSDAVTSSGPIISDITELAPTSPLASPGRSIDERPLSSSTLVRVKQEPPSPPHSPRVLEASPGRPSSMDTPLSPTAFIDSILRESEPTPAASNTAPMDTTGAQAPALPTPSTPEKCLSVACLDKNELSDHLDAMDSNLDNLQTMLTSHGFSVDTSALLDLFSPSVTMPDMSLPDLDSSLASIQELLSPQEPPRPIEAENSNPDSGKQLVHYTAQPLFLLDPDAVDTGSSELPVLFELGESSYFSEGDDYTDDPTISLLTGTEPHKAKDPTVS

Cytochrome P450 2C9 = Cytochrome P450 2C9 (Homo sapiens, UniProt P11712)
HEK293 = test: EBV LMP1 TES2 canonical NF-kB signalling blockers – cell-based, HEK293, luciferase, cherry-pick, dose response (AID 588343); assay type: functional; details: Homo sapiens
[5] = NIH-3T3 fibroblast cytotoxicity, dose response, cytotoxicity control, cell-based, fluorescence, Alamar Blue, secondary assay (AID 2327); assay type: functional;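 further: NIH-3T3 mouse fibroblasts cultured with fluconazole at 8 µg/mL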
[6] = system: Streptococcus sp. 'group A'; test: Streptococcus pyogenes SK(-)GAS viability under kanamycin – luminescence, BacTiterGlo, confirmation, counter-screen for streptokinase expression inhibitor project, dose response (AID 1900); assay type: functional, organism-based; details: read-out: EC50
[7] = fluconazole-exposed Candida albicans growth modulators – fluorescence, retest, confirmation (AID 2467); assay type: functional, cell-based
Streptococcus = test: GAS UMAA2166 growth inhibition – luminescence, BacTiterGlo, counter-screen for streptokinase expression inhibitor project, dose response (AID 1915); assay type: functional, organism-based;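 further: potency for reduction of bacterial viability or growth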
[8] = biological target: T5, Microphthalmia-associated transcription factor (Homo sapiens, UniProt O75030); test: reducers of TRPM1 reporter luminescence, concentration series – cell-based, SK-MEL-5, cherry-picked, set 3, MITF inhibitor project, dose response (AID 493073); assay type: functional;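 further: SK-MEL-5 melanoma cells with luciferase driven by the MITF target TRPM1 promoter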
T5 sequence (O75030 whole entry): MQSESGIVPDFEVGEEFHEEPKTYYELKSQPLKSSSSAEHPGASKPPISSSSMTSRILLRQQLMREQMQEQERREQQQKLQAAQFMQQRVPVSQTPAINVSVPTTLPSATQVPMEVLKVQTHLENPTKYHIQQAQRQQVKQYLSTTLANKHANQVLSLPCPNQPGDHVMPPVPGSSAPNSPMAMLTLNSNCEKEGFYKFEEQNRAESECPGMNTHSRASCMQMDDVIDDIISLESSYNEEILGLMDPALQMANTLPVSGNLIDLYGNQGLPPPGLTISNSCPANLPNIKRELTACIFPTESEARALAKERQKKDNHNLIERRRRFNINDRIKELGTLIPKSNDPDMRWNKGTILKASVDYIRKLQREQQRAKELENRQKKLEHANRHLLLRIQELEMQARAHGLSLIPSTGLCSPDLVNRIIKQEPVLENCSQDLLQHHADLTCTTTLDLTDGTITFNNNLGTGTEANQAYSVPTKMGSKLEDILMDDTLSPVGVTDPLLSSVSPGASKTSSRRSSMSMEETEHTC

H9c2 = test: cells; assay type: functional, cell-based; details: Rattus norvegicus, H9c2, Myocardium;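 further: confirmatory concentration-response retest of ultra-high-throughput screening hits for modulation of myocardial damage; cell death induced by hydrogen peroxide oxidative stress; compound pretreatment for 60 min then peroxide exposure for 2 h; potency is for protecting the cells against peroxide damage rather than for killing them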
[9] = luciferase reporter signal suppression in cells – H4 neuroglioma cells, luminescence, dose response (AID 1990); assay type: functional, cell-based
[10] = Luminescence Cell-Based Dose Response HTS to Identify Inhibitors of 5'UTR Stem-Loop Driven Prion Protein mRNA Translation in H4 Neuroglioblastoma Cells. [Related pubchem assays: 1827 (Project Summary), 1813 (Primary HTS)]; assay type: functional
Vero [11] = test: mammalian cell viability reduction – secondary assay, cytotoxicity control for West Nile virus antiviral project, dose response (AID 1650); assay type: functional, Chlorocebus sabaeus
[12] = alpha-synuclein stem-loop luciferase translation blockers – H4 neuroglioma cells, luminescence, confirmation (AID 1988); assay type: functional, cell-based
BJ = test: growth inhibition of engineered Ras-driven BJ cells – cell-based, alamar blue fluorescence, cherrypicked samples, dose response (AID 2631); assay type: functional; details: Homo sapiens;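 further: confirmatory dose-response assay in RAS-dependent BJ fibroblasts engineered with TERT, LT and ST, with cytotoxicity read by fluorescence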
Paired box protein Pax-8 = Paired box protein Pax-8 (Homo sapiens, UniProt Q06710); test: PAX8 transcriptional activity inhibition in RMG-I – RMG-I cells, luciferase, cherry-pick, dose response (AID 687027); assay type: functional, cell-based;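 further: luciferase reporter driven by Pax8 target thyroperoxidase promoter measured by SteadyGlo luminescence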
Chain of Paired box protein Pax-8 (Q06710 whole entry): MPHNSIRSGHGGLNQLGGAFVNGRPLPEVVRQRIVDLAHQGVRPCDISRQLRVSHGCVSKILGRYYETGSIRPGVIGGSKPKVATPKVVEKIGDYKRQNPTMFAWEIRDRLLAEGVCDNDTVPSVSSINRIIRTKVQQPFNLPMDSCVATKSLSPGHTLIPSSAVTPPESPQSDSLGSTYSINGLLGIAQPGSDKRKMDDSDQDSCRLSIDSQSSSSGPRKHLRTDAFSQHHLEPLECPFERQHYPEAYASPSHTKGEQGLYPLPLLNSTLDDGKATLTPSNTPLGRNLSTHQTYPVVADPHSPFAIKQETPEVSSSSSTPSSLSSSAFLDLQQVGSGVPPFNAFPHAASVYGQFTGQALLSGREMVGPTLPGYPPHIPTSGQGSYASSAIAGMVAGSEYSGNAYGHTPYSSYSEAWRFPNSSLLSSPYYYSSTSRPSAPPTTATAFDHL

Chain of Beta-galactosidase (Q8VNN2 whole entry): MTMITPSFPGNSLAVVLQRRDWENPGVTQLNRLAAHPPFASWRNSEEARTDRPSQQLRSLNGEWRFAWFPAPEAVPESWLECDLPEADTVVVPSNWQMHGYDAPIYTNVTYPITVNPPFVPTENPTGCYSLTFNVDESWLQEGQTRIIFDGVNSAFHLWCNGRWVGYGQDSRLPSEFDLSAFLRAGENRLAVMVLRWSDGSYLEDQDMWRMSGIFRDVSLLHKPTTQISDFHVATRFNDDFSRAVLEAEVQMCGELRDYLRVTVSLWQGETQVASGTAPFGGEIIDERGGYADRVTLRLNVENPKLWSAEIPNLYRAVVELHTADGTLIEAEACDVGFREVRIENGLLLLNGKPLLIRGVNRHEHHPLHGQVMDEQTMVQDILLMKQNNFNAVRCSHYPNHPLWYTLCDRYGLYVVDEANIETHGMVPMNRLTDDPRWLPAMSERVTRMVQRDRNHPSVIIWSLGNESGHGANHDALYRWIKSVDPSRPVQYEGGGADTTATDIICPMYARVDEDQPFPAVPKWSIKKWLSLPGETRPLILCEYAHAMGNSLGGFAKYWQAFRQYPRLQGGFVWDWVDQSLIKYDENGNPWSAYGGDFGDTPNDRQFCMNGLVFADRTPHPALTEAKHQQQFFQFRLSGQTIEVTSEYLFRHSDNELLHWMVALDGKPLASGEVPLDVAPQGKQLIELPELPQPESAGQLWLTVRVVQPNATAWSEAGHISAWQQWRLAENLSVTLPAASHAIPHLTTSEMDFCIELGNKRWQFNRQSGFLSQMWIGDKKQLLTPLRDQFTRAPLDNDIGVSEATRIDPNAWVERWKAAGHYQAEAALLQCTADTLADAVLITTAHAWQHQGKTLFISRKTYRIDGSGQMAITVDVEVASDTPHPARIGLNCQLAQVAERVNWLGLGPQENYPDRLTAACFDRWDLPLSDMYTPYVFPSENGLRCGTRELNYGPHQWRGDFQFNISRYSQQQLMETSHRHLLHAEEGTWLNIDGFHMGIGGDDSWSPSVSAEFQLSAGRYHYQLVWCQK
Chain of Trypsin (P00761 whole entry): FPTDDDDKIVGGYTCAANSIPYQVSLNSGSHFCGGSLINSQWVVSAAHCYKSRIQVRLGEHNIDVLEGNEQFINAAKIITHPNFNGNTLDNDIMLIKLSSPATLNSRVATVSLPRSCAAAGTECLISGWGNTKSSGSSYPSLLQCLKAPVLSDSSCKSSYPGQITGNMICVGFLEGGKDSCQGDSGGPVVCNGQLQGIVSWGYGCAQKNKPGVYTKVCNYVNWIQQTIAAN
Chain of Cytochrome P450 3A4 (P08684 whole entry): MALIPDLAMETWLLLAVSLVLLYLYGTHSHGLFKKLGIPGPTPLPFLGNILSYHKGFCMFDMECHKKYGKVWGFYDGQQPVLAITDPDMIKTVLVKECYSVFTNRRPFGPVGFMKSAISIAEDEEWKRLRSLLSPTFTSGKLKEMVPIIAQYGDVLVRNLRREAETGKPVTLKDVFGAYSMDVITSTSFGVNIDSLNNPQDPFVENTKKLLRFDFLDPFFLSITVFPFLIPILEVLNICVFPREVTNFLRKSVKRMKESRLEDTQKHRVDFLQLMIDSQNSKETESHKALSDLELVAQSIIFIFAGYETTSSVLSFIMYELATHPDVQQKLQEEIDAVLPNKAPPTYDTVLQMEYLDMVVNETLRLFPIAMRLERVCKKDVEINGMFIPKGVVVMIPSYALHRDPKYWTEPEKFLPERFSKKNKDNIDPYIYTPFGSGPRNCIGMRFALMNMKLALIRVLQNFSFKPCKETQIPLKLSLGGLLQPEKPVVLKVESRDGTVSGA
Chain of Cytochrome P450 2C9 (P11712 whole entry): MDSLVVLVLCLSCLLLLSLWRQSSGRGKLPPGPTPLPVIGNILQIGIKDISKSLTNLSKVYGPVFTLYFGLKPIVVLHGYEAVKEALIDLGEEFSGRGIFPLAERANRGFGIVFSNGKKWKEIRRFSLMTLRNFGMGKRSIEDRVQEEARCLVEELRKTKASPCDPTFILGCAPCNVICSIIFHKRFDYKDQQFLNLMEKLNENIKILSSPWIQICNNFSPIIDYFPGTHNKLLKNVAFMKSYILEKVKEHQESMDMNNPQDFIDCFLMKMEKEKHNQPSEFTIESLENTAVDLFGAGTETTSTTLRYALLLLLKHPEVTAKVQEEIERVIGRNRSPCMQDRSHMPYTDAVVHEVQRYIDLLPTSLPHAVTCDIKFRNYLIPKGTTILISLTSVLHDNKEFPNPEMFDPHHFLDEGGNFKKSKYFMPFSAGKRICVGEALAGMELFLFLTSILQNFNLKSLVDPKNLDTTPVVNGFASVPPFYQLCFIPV

SMILES: O=C(CCC(=O)OCC(=O)c1cccc([N+](=O)[O-])c1)Nc1ccccc1Cl
- EC50 (Beta-galactosidase): > 40 µM (inactive)
- IC50 [1]: 15 µM (active)

SMILES: CCN(CC)S(=O)(=O)c1ccc(NC(=O)COC(=O)c2ccc(Br)o2)cc1
- AC50 (Cytochrome P450 1A2): 0.316 µM (inconclusive)
- AC50 (Cytochrome P450 3A4): inconclusive

SMILES: Cc1ccc(N(Cc2cc(O)nc3ccccc23)C(=O)CCl)c(C)c1
- IC50 (Vero [2]): > 25 µM (active)
- CC50 (Vero [3]): 7.95 µM (active)

SMILES: CCN1CCN(Cc2c(O)ccc3c(=O)c(-c4ccccc4OC)coc23)CC1
- AC50 (Trypsin): 16 µM (active)
- AC50 (CAAX prenyl protease 2): 5.2 µM (active)

SMILES: O=C(COc1ccccc1)OCC(=O)c1ccc(S(=O)(=O)N2CCCCC2)cc1
- EC50 (Beta-galactosidase): > 40 µM (inactive)
- IC50 [1]: 16.9 µM (active)

SMILES: COc1cc2c(cc1OC)C(CCc1ccccc1)=NCC2
- AC50 (Trypsin): 9.41 µM (active)
- EC50 [4]: > 260 µM (inactive)
- AC50 (CAAX prenyl protease 2): 6.03 µM (active)

SMILES: Cn1c(=O)c(-c2ccccc2)nc2cnc(Oc3ccccc3)nc21
- AC50 (Cytochrome P450 2C9): 12.6 µM (inconclusive)
- AC50 (Cytochrome P450 3A4): inconclusive

SMILES: CCOc1ccccc1C(=O)N[C@H](C(=O)OCc1cc([N+](=O)[O-])cc2c1OCOC2)C(C)C
- AC50 (HEK293): 183 µM (active)

SMILES: Cc1cc(C)c2ccc(N)nc2c1O
- EC50 [5]: > 150 µM (inconclusive)
- EC50 [6]: 3.15 µM (active)
- EC50 (Beta-galactosidase): > 40 µM (inactive)
- EC50 [7]: > 38 µM (not active)
- IC50 [1]: 13.7 µM (active)
- EC50 (Streptococcus): 9.09 µM (active)
- AC50 [8]: 9.58 µM (active)
- IC50 (H9c2): > 79 µM (inactive)

SMILES: C[C@H]1O[C@@H](O[C@H]2[C@@H](O)C[C@H](O[C@H]3[C@@H](O)C[C@H](O[C@H]4CC[C@@]5(C)[C@H](CC[C@@H]6[C@@H]5C[C@@H](O)[C@]5(C)[C@@H](C7=CC(=O)OC7)CC[C@]65O)C4)O[C@@H]3C)O[C@@H]2C)C[C@H](O)[C@@H]1O [DIGOXIN]
- EC50 [9]: < 0.1 µM (active)
- EC50 [10]: < 0.1 µM (active)
- CC50 (Vero [11]): 0.37 µM (active)
- CC50 (Vero [11]; Chlorocebus sabaeus, Vero): 0.3 µM (active)
- EC50 [12]: < 0.1 µM (active)
- IC50 (Vero [2]): < 0.05 µM (active)
- EC50 (BJ): < 0.104 µM (active)
- CC50 (Vero [3]): 0.39 µM (active)
- AC50 (Paired box protein Pax-8): 0.414 µM (active)
